From the SangsterLogP compilation

Experiment: method code SF-HPLC, from DOI: 10.1021/je9900629

Row | Structure (SMILES) | logP
1 | OC(C1CC1)C1CC1 | 1.07
2 | C1C2C3C2C2C1C32 (stereo unspecified) | 2.9
3 | OCC1CC2CCC1C2 (stereo unspecified) | 1.99
4 | ClC1CC2CCC1C2 (stereo unspecified) | 3.35
5 | OC1C2CCC(C2)C1O (stereo unspecified) | 0.4
6 | OC1CC2CCC1C2O (stereo unspecified) | 0.4

Other lines, results leading:

Row | logP | Structure (SMILES)
7 | 1.45 | OC1CC2CCC1C2 (stereo unspecified)
8 | 3.78 | C1CC2CCC1C2
9 | 0.81 | O=C1C2CC3C(C2)C13
10 | 1.58 | C1CC2CC1C1OC21 (stereo unspecified)
11 | -0.42 | OC1C2CC3C1C3C2O (stereo unspecified)

Experiment: method code SF-AS, from DOI: 10.1021/je9900629

Row | Structure (SMILES) | logP
12 | C1=CC2C=CC1C2 | 2.67
13 | C1=CC2CCC1C2 | 3.24
14 | OC1CC2C=CC1C2 (stereo unspecified) | 1.24

Experiment: not given

Row | Structure (SMILES) | logP
15 | BrC1CC2CCC1C2 (stereo unspecified) | 3.54
16 | BrC12CC3CC1C2C3 | 3.11
